According to paper PMC5589878, “Development of Fluorescent Probes that Target Serotonin 5-HT2B Receptors” (Scientific Reports, 2017):
Like-named read-outs stand apart in the source and are kept apart here.

How the values were obtained:
5-HT2A receptors = 5-HT2A receptors (Homo sapiens, UniProt P28223); assay: Radioligand competition binding assay at human 5-HT2A receptors; parameters: expressed in transfected cells; host or cells: CHO-FA4-5-HT2A cells (membranes)
human 5-HT2C receptors = target: T1, human 5-HT2C receptors (Homo sapiens, UniProt P28335); assay: Radioligand competition binding assay at human 5-HT2C receptors; conditions: for Binding at 5-HT2 receptors % at 1 μM 5-HT2C: [3H]Mesulergine, membranes from HeLa-5-HT2C cells
T1 construct: expressed in transfected cells; host or cells: HeLa-5-HT2C cells (membranes)
T1 sequence (P28335 33-458): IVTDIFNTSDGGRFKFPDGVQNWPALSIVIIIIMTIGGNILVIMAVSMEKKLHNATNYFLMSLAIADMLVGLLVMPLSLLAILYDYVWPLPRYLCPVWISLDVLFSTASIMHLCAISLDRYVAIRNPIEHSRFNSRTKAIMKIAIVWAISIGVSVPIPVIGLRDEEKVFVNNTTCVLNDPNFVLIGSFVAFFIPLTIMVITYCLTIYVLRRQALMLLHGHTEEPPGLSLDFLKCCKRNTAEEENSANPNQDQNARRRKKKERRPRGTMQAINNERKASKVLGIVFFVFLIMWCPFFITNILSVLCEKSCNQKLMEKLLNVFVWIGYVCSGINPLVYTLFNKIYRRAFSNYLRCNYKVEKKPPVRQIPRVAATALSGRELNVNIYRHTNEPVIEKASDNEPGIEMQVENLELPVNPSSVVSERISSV

[1] = Absorption and emission spectra (photophysical properties); type: physicochemical; conditions: 10 μM solutions
Method: The absorption and emission spectra of the fluorescent 5-HT2 ligands (10 and 12) were determined on 10 μM solutions. The most relevant fluorescent properties are collected in Fig. 5. All of the synthesized derivatives emitted fluorescence in the visible region of the spectrum, with selected fluorescent tags (Fig. 4) providing distinctive properties and excitation wavelengths. The excitation wavelengths varied from 305 to 555 nm, whereas those for emission varied from 398 to 580 nm.

5-HT2B receptors [2] = target: T2, 5-HT2B receptors (Homo sapiens, UniProt P41595); assay: Radioligand competition binding assay at human 5-HT2B receptors
T2 sequence (P41595 whole entry): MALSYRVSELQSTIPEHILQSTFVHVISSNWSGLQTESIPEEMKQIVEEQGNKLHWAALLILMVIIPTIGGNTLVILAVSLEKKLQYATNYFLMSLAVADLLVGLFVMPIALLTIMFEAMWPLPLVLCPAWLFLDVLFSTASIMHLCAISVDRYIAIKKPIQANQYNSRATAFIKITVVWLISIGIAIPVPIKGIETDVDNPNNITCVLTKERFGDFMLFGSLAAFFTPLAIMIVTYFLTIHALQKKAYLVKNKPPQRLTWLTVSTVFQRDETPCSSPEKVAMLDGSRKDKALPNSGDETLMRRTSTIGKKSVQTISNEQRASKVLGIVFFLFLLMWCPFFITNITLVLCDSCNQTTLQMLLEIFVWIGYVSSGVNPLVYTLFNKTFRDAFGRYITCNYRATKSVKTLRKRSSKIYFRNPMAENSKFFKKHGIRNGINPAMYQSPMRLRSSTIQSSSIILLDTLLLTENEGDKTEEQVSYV

5-HT2B receptors [3] = target: T2, 5-HT2B receptors; assay: Functional assay of IPs accumulation at human 5-HT2B receptors; type: cell-based
Method: After 24 h, growth medium was replaced by serum-free medium containing 10 μCi/mL [^3H]myo-inositol (20.3 Ci/mmol, Perkin-Elmer) for 24 h. […] After the incubation time, assay buffer was discarded and 200 μL of 100 mM formic acid was added to the cells for 30 min at 4 °C and 20 μL of the lysate were transferred to a flexiplate plate (Perkin-Elmer, Waltham, MA, USA) together with 80 μL of a solution of RNA Binding YSi SPA Beads (Perkin-Elmer, Waltham, MA, USA) to measure accumulation of [^3H]IPs (IP1,IP2, and IP3, collectively referred to as IPs).

Sequence of 5-HT2A receptors (P28223 whole entry): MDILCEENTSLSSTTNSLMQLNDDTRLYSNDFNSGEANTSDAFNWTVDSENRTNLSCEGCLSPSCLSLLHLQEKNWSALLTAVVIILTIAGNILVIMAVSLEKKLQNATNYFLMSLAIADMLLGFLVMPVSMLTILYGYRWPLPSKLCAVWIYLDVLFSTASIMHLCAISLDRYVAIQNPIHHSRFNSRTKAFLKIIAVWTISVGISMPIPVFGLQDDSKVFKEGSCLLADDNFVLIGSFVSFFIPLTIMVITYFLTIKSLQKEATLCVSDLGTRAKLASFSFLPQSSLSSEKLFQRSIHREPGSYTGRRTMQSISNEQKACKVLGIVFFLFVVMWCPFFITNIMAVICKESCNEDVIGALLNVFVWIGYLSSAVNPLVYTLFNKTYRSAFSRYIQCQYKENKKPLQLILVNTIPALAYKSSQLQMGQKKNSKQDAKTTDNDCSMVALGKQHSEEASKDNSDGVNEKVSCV

Molecule | Ki (5-HT2A receptors; [3H]Ketanserin, membranes from CHO-FA4-5-HT2A cells, read-out: Binding at 5-HT2 receptors Ki 5-HT2A) [nM] | Binding at 5-HT2 receptors % at 1 μM 5-HT2C (human 5-HT2C receptors) [%] | Δλ (Stokes shift) [1] [nm] | εmax [1] [M⁻¹ cm⁻¹] | λmax Abs [1] [nm] | λmax Em [1] [nm] | Ki (5-HT2A receptors) [nM] | Ki (human 5-HT2C receptors) [nM] | Ki (5-HT2B receptors [2]) [nM] | EC50 (5-HT2B receptors [3]) [nM] | Binding at 5-HT2 receptors % at 1 μM 5-HT2A (5-HT2A receptors; at 1 μM, [3H]Ketanserin, membranes from CHO-FA4-5-HT2A cells) [%] | melting point [°C]
3-(2-(2-(2-(2-aminopropyl)-5-iodo-4-methoxyphenoxy)ethoxy)ethoxy)-N-(3-((5-(dimethylamino)naphthalene)-1-sulfonamido)propyl)propanamide [10d] | 13000 | 3 |  |  |  |  |  |  |  |  |  | 
COc1cc(CC(C)N)c(OCCCC(=O)NCCCNS(=O)(=O)c2cccc3c(N(C)C)cccc23)cc1I (centres unmarked) [10a, 4-(2-(2-aminopropyl)-5-iodo-4-methoxyphenoxy)-N-(3-((5-(dimethyl-amino)naphthalene)-1-sulfonamido)propyl)butanamide] |  |  | 147 | 2726 | 350 | 497 | 1710 | 273 | 112 | 89.1 |  | 
COc1cc(CC(C)N)c(OCCCCCCC(=O)NCCCNS(=O)(=O)c2cccc3c(N(C)C)cccc23)cc1I (centres unmarked) [10b, 7-(2-(2-aminopropyl)-5-iodo-4-methoxyphenoxy)-N-(3-((5-(dimethylami-no)naphthalene)-1-sulfonamido)propyl)heptanamide] |  |  |  |  |  |  | 41200 | 295 | 167 | 245 |  | 
COc1cc(CC(C)N)c(OCCCCCCCCCCC(=O)NCCCNS(=O)(=O)c2cccc3c(N(C)C)cccc23)cc1I (centres unmarked) [10c, 11-(2-(2-aminopropyl)-5-iodo-4-methoxyphenoxy)-N-(3-((5-(dimethyl-amino)naphthalene)-1-sulfonamido)propyl)undecanamide] |  | 1 |  |  |  |  |  |  | 806 |  | 2 | 171 to 173
COc1cc(CC(C)N)c(OCCCC(=O)NCCCN2C(=O)c3c(c4ccccc4c4ccccc34)C2=O)cc1I (centres unmarked) [12c, 4-(2-(2-aminopropyl)-5-iodo-4-methoxyphenoxy)-N-(3-(1,3-dioxo-1,3-dihydro-2H-dibenzo[e,g]isoindol-2-yl)propyl)butanamide] |  |  | 76 | 2758 | 390 | 466 | 5180 | 616 | 86.9 | 24.9 |  | 
COC(=O)c1c(C(=O)OCCCNC(=O)CCCOc2cc(I)c(OC)cc2CC(C)N)c2ccccc2c2ccccc12 (centres unmarked) [12d, 9-(3-(4-(2-(2-aminopropyl)-5-iodo-4-methoxyphenoxy)butanamido)pro-pyl)-10-methyl phenanthrene-9,10-dicarboxylate] |  |  | 98 | 6813 | 305 | 403 | 3980 | 1100 | 140 | 25.6 |  | 
COC(=O)c1c(C(=O)OCCCNC(=O)CCCOc2cc(I)c(OC)cc2CC(C)N)c2cc(F)c(F)cc2c2cc(F)c(F)cc12 (centres unmarked) [12e, 9-(3-(4-(2-(2-aminopropyl)-5-iodo-4-methoxyphenoxy)butanamido)pro-pyl) 10-methyl 2,3,6,7-tetrafluorophenanthrene-9,10-dicarboxylate] |  |  | 83 | 18295 | 315 | 398 | 2570 | 2280 | 148 | 9.45 |  | 
COC(=O)c1c(C(=O)OCCCNC(=O)CCCOc2cc(I)c(OC)cc2CC(C)N)c2cc3c(cc2c2cc4c(cc12)CCC4)CCC3 (centres unmarked) [12f, 5-(3-(4-(2-(2-aminopropyl)-5-iodo-4-methoxyphenoxy)butanamido)pro-pyl)-6-methyl-1,2,3,8,9,10-hexahydrodicyclopenta[b,h]phenanthrene-5,6-dicarbo-xylate] |  |  | 119 | 12078 | 309 | 428 | 2320 | 1030 | 136 | 47 |  | 
